PubChem BioAssay AID1508591

Conditions: rat; liver microsomes; pH 7.4; 15.0 min; 1.0 µM

Compared with `Nc1c(C(=O)Nc2ccc(Cl)cc2)sc2nc3c(cc12)N1CCC3CC1`, `NC(=O)C1CCN(c2nc(-c3ccc4ccccc4c3)cs2)CC1` is 9.2-fold lower in half-life: 24 min for the first, 2.62 min for the second.

Going from `O=S(=O)(c1ccccc1)c1nc(-c2ccc(F)cc2)oc1N1CCCCCC1` to `O=S(=O)(Nc1nc2n(n1)C(c1ccccc1)C=C(c1ccc(Cl)cc1)N2)c1ccccc1` (stereo not drawn), the half-life rises from 1.95 min to greater than 30 min.

`COc1ccccc1C(=O)Nc1ccccc1C(=O)Nc1cccc(S(=O)(=O)C(F)(F)F)c1` and `CCOc1ccccc1C(=O)Nc1ccncc1C(=O)Nc1cccc(S(=O)(=O)C(F)(F)F)c1` cannot be ordered by half-life: greater than 30 min for the first, greater than 30 min for the second.

Compared with `Cc1ccc(NC(=O)c2cc(S(=O)(=O)NCCC3=CCCCC3)ccc2F)cc1F`, `Cc1ccc(S(=O)(=O)Nc2cnccc2C(=O)Nc2ccc(C#N)cc2)cc1` is 3.6-fold higher in half-life: 2.07 min for the first, 7.5 min for the second.

First: Cc1ccc(-c2cc(C(=O)Nc3ccc(-n4cccn4)cc3)c3ccccc3n2)cc1C
Second: Cc1ccc(-c2cc(C(=O)Nc3ccncc3)c3ccccc3n2)cc1
The half-life of the first is lower: 9.1 min for the first, greater than 30 min for the second.

`O=C1Nc2ccc(Cl)cc2/C1=C\c1cc(Cl)c(O)c(Cl)c1` and `O=C(Cc1nc2ccc(Cl)cc2[nH]1)Nc1ccc(S(=O)(=O)Nc2nccs2)cc1` cannot be ordered by half-life: greater than 30 min for the first, greater than 30 min for the second.

`O=C(NCCO)c1cccc(-c2cc(Nc3ccc(OC(F)(F)F)cc3)ncn2)c1` and `CCS(=O)(=O)c1cccc(C(=O)Nc2ccc(-c3nc4ccccc4s3)c(O)c2)c1` cannot be ordered by half-life: greater than 30 min for the first, greater than 30 min for the second.

`Cc1ccc(C)c(S(=O)(=O)NCC2CN(Cc3ccccc3)CCO2)c1` (stereo not drawn) and `Cc1cccc(S(=O)(=O)c2cn(Cc3ccccc3)c3cc(N4CCCC(C)C4)c(F)cc3c2=O)c1` (stereo not drawn) are within 1.5-fold of each other in half-life: 1.6 min for the first, 2.01 min for the second.

Going from `COc1cccc(CNCCSc2nnnn2C)c1OCc1ccc(Cl)cc1Cl` to `COc1ccc(-c2ccc3ncc(Nc4ccncc4)n3n2)cc1OC`, the half-life rises from 1.35 min to 23 min (17-fold).

Going from `CCn1cc(C(=O)O)c(=O)c2cnc(N3CCN(C(=S)Nc4ccccc4)CC3)nc21` to `COc1ccnc(NC(=S)N2CCN(c3ccccc3C(F)(F)F)CC2)c1`, the half-life falls from greater than 30 min to 2.9 min.

`CCOC(=O)c1ccc(N2C(=O)c3n[nH]c(-c4cccs4)c3C2c2ccc(OCC)cc2)cc1` (stereo not drawn) and `CCOc1ccc(C2C(C(=O)Nc3ccccc3OC)=C(C)Nc3c(C(=O)Nc4cccc(C)c4)cnn32)cc1` (stereo not drawn) are within 1.5-fold of each other in half-life: 5.72 min for the first, 4.18 min for the second.

First: Cc1cnc(-c2ccccc2C(C)C)nc1NCC1CCN(c2cccnc2)C1 (stereo not drawn)
Second: FC(F)(F)c1cccc(N2CCN(C(=S)Nc3nccc4ccccc34)CC2)c1
The half-life of the first is lower: 2.87 min for the first, greater than 30 min for the second.

`COc1cccc(CNc2ccc(S(=O)(=O)Nc3nc4ccccc4[nH]3)cc2)c1O` and `O=[N+]([O-])c1cccc(CNc2ccc(S(=O)(=O)Nc3nccs3)cc2)c1O` cannot be ordered by half-life: greater than 30 min for the first, greater than 30 min for the second.

Going from `NC1CCN(c2nc(-c3ccc(Br)cc3)cs2)CC1` to `Brc1ccc(-c2csc(N3CCOCC3)n2)cc1`, the half-life falls from greater than 30 min to 2.48 min.

Compared with `COc1ccc(OC)c(-c2nnc3ccc(-c4ccc(OC)c(O[C@@H]5CCOC5)c4)nn23)c1`, `COc1cc(NC(=O)c2cc(-c3ccccc3O)no2)cc(OC)c1OC` is 2.3-fold higher in half-life: 5.5 min for the first, 12.5 min for the second.

First: COc1ccc(-n2nc(C3CCCN(C(=O)C4CC4)C3)[nH]c2=O)cc1 (stereo not drawn)
Second: COc1ccccc1-n1cnc2cc(C(=O)N3CCCCC3)ccc21
The half-life of the first is higher: greater than 30 min for the first, 3.2 min for the second.

Going from `COC12C(COC(N)=O)C3=C(C(=O)C(C)=C(N)C3=O)N1CC1C2N1C` (stereo not drawn) to `COc1ccc(S(=O)(=O)N(CC(=O)Nc2ccc(C)cc2)c2ccc(C)cc2)cc1OC`, the half-life falls from greater than 30 min to 3.28 min.

First: FC(F)(F)c1cccc(Nc2ccc(CNc3nc(-c4ccccc4C(F)(F)F)nc4ccccc34)cc2)c1
Second: Fc1cc(Nc2nc(-c3ccncc3)nc3ccccc23)ccc1-c1ccc(F)c(F)c1F
The half-life of the first is 1.5-fold lower: 15.6 min for the first, 24 min for the second.

First: CN(C)c1cccc(-c2cc(N3CCC(C(N)=O)CC3)ncn2)c1
Second: CN(C)C(=O)c1nc(-c2ccc(Cl)nc2)c2ccccn12
The half-life of the first is lower: 21.1 min for the first, greater than 30 min for the second.

Going from `COc1ccc(CN2CCNc3cc(Nc4ccccc4)ncc3C2)cn1` to `COc1cnccc1-c1nc(Nc2ccc(F)c(F)c2)c2ccccc2n1`, the half-life rises from 10 min to greater than 30 min.

Going from `CC(C)Oc1ccc(C(=O)Nc2ccc3c(c2)CCCN3C(=O)c2cccs2)cc1` to `CCOc1ccc(C(=O)Nc2ccc(S(=O)(=O)N3CCCCC3c3cccnc3)cc2)cc1` (stereo not drawn), the half-life falls from 4.8 min to 1.71 min (2.8-fold).

`CCc1ccc(NC(=O)CSC2=Nc3ccccc3C3=NC(CC(=O)NCc4ccc5c(c4)OCO5)C(=O)N23)cc1` (stereo not drawn) and `Cc1n[nH]c(C)c1CCc1nc2c3ccccc3nc(SCC(=O)Nc3ccc(F)cc3)n2n1` are within 1.5-fold of each other in half-life: 2.86 min for the first, 2.67 min for the second.

`Cc1ccnc(NC(=S)N2CCN(c3ccc(Cl)c(Cl)c3)CC2)c1` and `Cc1cc(C)nc(NC(=S)N2CCN(c3cccc([N+](=O)[O-])c3)CC2)c1` are within 1.5-fold of each other in half-life: 24 min for the first, 17 min for the second.

First: Cc1cc(C)nc(NC(=S)N2CCN(c3nccc(C(F)(F)F)n3)CC2)c1
Second: Cc1cc(C)nc(NC(=S)N2CCN(c3cccc(C(F)(F)F)n3)CC2)c1
The half-life of the first is 1.8-fold lower: 16 min for the first, 28 min for the second.

`Cc1noc(C)c1-c1ccc(Nc2nc(-c3ccncc3)nc3ccccc23)cc1F` and `Fc1ccc(Nc2nc(-c3ccncc3)nc3ccccc23)cc1F` are within 1.5-fold of each other in half-life: 10 min for the first, 9.82 min for the second.

`COc1ccnc(NC(=S)N2CCN(c3cc(C(F)(F)F)cc(C(F)(F)F)c3)CC2)c1` and `Cc1cc(C)nc(NC(=S)N2CCN(Cc3cccc(C(F)(F)F)c3)CC2)c1` cannot be ordered by half-life: greater than 30 min for the first, greater than 30 min for the second.

Compared with `Fc1cc(Nc2nc(-c3ccncc3)nc3ccccc23)ccc1N1CCNCC1`, `Cc1ccc(-c2cc(C(=O)O)c3ccccc3n2)cc1` is lower in half-life: greater than 30 min for the first, 22.4 min for the second.

First: O=C1c2ccccc2-n2c1nc1ccccc1c2=O
Second: Cn1c2ccccc2c(=O)c2c(=O)n(-c3ccccc3)c(C3CCCCC3)nc21
The half-life of the first is lower: 21.3 min for the first, greater than 30 min for the second.

Going from `CN(Cc1ccc(/C=C/C(=O)NO)cc1)CC12CC3CC(CC(C3)C1)C2` to `CC(C)NC(=O)C1CCN(C(=O)c2cc3sccc3n2Cc2ccc(Cl)cc2)CC1`, the half-life falls from 2.89 min to 1.05 min (2.8-fold).

Going from `CNC(=O)c1cc(Oc2ccc(NC(=O)Nc3cc(C(C)(C)C)nn3-c3ccc4ncccc4c3)c(F)c2)ccn1` to `Cc1ccc(S(=O)(=O)Nc2ccc(Cl)cc2C(=O)Nc2nc(-c3ccccc3)cs2)cc1`, the half-life falls from 6.64 min to 3.4 min (2-fold).

Compared with `COc1ccc(C(=O)Nc2ccc3c(c2)N(C2CCCC2)C(=O)c2ccccc2S3)cc1OC`, `O=C(Nc1ccc(S(=O)(=O)Nc2nccs2)cc1)c1ccc2ccccc2c1` is higher in half-life: 1.7 min for the first, greater than 30 min for the second.

Compared with `O=C(Nc1cccc(C(F)(F)F)c1)c1ccccc1NC(=O)C1CCCCC1`, `COc1ccccc1C(=O)NC1CCCc2c1[nH]c1c(Cl)cccc21` (stereo not drawn) is 11-fold lower in half-life: 25 min for the first, 2.31 min for the second.

`Cn1c(=O)cc(C(=O)NC2CCCc3c2[nH]c2c(Cl)cccc32)c2ccccc21` (stereo not drawn) and `COc1cc(Cl)ccc1C(=O)Nc1nc(-c2ccccc2)cs1` are within 1.5-fold of each other in half-life: 10.1 min for the first, 14 min for the second.

`Cc1ccc(S(=O)(=O)Nc2cnccc2C(=O)Nc2nc(-c3ccco3)cs2)cc1` and `CCOC(=O)c1csc(NC(=O)c2ccncc2NS(=O)(=O)c2ccc(C)cc2)n1` are the same in half-life: 1.9 min for the first, 1.9 min for the second.

Compared with `O=C(Nc1nc(-c2ccccc2)cs1)c1ccncc1NS(=O)(=O)c1ccc(-c2ccccc2)cc1`, `Cc1ccc(NS(=O)(=O)c2ccccc2C(=O)Nc2nc(-c3ccccc3)cs2)cc1` is 7.5-fold higher in half-life: 2 min for the first, 15 min for the second.

Going from `CCCCCCCCc1ccc(CCC(N)(CO)CO)cc1` to `CCCc1ccc(C(=O)NC(=O)c2ccccc2O)cc1`, the half-life falls from greater than 30 min to 2.37 min.

First: Cn1ccc2c(C(=O)NCc3cccnc3)nc(-c3ccc(CO)cc3)cc21
Second: COCCn1ccc2c(C3=CCOCC3)nc(-c3cccc(NC(C)=O)c3)cc21
The half-life of the first is lower: 15.7 min for the first, greater than 30 min for the second.

`CCOc1cc(F)c(CCNC(=O)c2cc3sccc3n2Cc2ccccc2)cc1OCC` and `CCOc1ccc(CCNC(=O)c2cc3sccc3n2Cc2cccc(C)c2)cc1OCC` are the same in half-life: 1.8 min for the first, 1.8 min for the second.

Compared with `CC1=C(C(=O)Nc2ccccc2)C(c2ccc[nH]2)n2ncnc2N1` (stereo not drawn), `CC1=C(C(=O)Nc2nnc(-c3ccccc3)s2)C(c2[nH]ncc2Cl)N=C(Nc2nc3ccccc3o2)N1` (stereo not drawn) is lower in half-life: greater than 30 min for the first, 11 min for the second.

`O=C(NCCc1ccccn1)C1CC(=O)N(c2n[nH]c3cc(Br)ccc23)C1` (stereo not drawn) and `COc1ccccc1C(=O)Nc1nc2nc(C)cc(=O)n2[nH]1` are within 1.5-fold of each other in half-life: 29.7 min for the first, 26 min for the second.

Compared with `Cc1cc(Oc2ccc(N)cn2)ccc1Cl`, `Cc1onc(-c2ccc(F)cc2)c1COc1ccc(C(=O)N2CCS(=O)(=O)CC2)cn1` is 1.8-fold lower in half-life: 17.8 min for the first, 9.64 min for the second.

Compared with `Nc1ncnc(N2CCc3ccccc32)c1[N+](=O)[O-]`, `Nc1nc2c(s1)C(c1ccccc1)CC(=O)N2` (stereo not drawn) is higher in half-life: 8.6 min for the first, greater than 30 min for the second.

Going from `O=C(Nc1ccc(N2CCN(c3ncccc3C(F)(F)F)CC2)nc1)c1cccs1` to `O=C(NCc1ccco1)c1nc2nc(-c3cccs3)cc(C(F)(F)F)n2n1`, the half-life rises from 10.3 min to greater than 30 min.

`O=C(Nc1ccc(S(=O)(=O)Nc2nccs2)cc1)c1ccnc2ccccc12` and `N#Cc1ccc(NS(=O)(=O)c2ccc(NC(=O)Cc3ccc(Cl)c(Cl)c3)cc2)cc1` cannot be ordered by half-life: greater than 30 min for the first, greater than 30 min for the second.

`O=C1NC(=O)C(c2cnc3ccccn23)=C1c1cn2c3c(cccc13)CN(C(=O)N1CCOCC1)CC2` and `COc1cc(-c2cc3c(nc2-c2ccccc2)nc(C(=O)NC2CCN(C)CC2)n3C)ccn1` cannot be ordered by half-life: greater than 30 min for the first, greater than 30 min for the second.

Going from `CCN(CCN(C)C)C(=O)C1CCN(S(=O)(=O)c2c(C)noc2/C=C/c2ccccc2F)CC1` to `CC(=O)c1c(C)[nH]c(C(=O)Nc2cccc(S(=O)(=O)N3CCCCCC3)c2)c1C`, the half-life falls from greater than 30 min to 1.6 min.

First: COc1cccc(-c2nc(-c3cc4cc(OC)ccc4[nH]c3=O)no2)c1
Second: COc1cc(-c2ccnc3c2c(C)nn3-c2cccc(C(F)(F)F)c2)ccc1O
The half-life of the first is lower: 24 min for the first, greater than 30 min for the second.

Going from `Clc1ccccc1-c1nnc2sc(-c3ccc4c(c3)OCO4)nn12` to `Cc1nnc(N2C(=O)c3oc4ccccc4c(=O)c3C2c2ccc(F)cc2)s1` (stereo not drawn), the half-life rises from 1.7 min to greater than 30 min.

First: CCOc1ccc(CCNC(=O)c2cc3sccc3n2CCN2CCN(C)CC2)cc1OCC
Second: CCOC(=O)c1[nH]c(C)c(CCC(=O)N2CCN(c3cccc(C)c3C)CC2)c1C
The half-life of the first is 2.7-fold higher: 6.2 min for the first, 2.27 min for the second.

First: Cc1ccc(NC2=C(c3ccc(C(F)(F)F)cc3)C(=O)c3ccccc32)cc1C
Second: c1ccc(-c2ccc(CNc3nc(-c4ccccn4)nnc3-c3ccccc3)cc2)cc1
The half-life of the first is 1.5-fold lower: 5.08 min for the first, 7.73 min for the second.

Compared with `Cc1noc(C)c1-c1ccc(-c2cc(C(N)=O)c(NC(N)=O)s2)c(O[C@H]2CCNC2)c1`, `CC(C)(C)C1CCc2nc(NC(=O)c3cccc(Cl)c3)sc2C1` (stereo not drawn) is lower in half-life: greater than 30 min for the first, 20 min for the second.

In the case of `CSc1nnc2c3ccccc3n(CCc3ccccc3)c2n1`, the half-life is reported as 1.69 min.
